Positions of bridges follow the written chain, without caps; N, C: chain ends. Non-standard residues stand in square brackets, D forms with d. Residues, ends and D or L forms follow the SMILES beside them. Chains are numbered I, II in the order given. No end group written: not given here. 2Nal = N[C@@H](Cc1ccc2ccccc2c1)C(=O)O; Lys(iPr) = CC(C)NCCCC[C@H](N)C(=O)O
How the values were obtained:
[1] = target: T1, CXCR4 D262E (Homo sapiens, UniProt P61073, D262E); test: Competitive binding to CXCR4 mutant D262E (12G5, CHO cells); conditions: TM6, class of reduction vs wild-type CXCR4, 12G5 competition, averages of at least three independent experiments
T1 construct: expressed in transfected cells
Method: (§1) Plasmid pcDNA3-CXCR4 and mutated pcDNA3-CXCR4 were extracted and transfected into CHO cells using Lipofectamine 2000 according to the manufacturer’s guidelines. The selective medium containing G418 at a concentration of 1.2 mg/ml was applied to isolate stably transfected cells. CHO cells expressing wild-type CXCR4 and mutant CXCR4 were obtained using fluorescence-activated cell sorting (FACS).
(§2) All of the CXCR4 mutants were prepared using PCR technology. Briefly, pairs of asymmetrical primers containing the desired amino acid mutations (Supplementary Tables S1 and S2), each complementary to opposite strands of the pcDNA3–CXCR4, were designed for amplification by Q5® High-Fidelity DNA polymerase and the generation of mutated constructs. The methylated pcDNA3–CXCR4 templates were digested by DpnI. The mutated pcDNA3–CXCR4 was transformed into competent E. coli TOP10 for long-term storage and amplification.
(§3) The procedure for the CXCR4 competitive binding experiments was published previously. Briefly, CXCR4 antibody 12G5 (250 ng/ml) was incubated with 5 × 10^5 cells and varying concentrations of unlabeled compounds in a final volume of 100 μl of assay buffer (PBS with 0.5% BSA and 0.05% NaN3) in 96-well plates for 40 min on ice, after being washed with assay buffer once. The cells were incubated with FITC-conjugated second antibody IgG for 30 min on ice, then washed with assay buffer three times. The fluorescence intensity was measured for excitation at 485 nm and emission at 535 nm using multimode plate reader (PerkinElmer). The IC50 values were calculated using graphpad Prism 7. Experiments were performed at least three times.

[2] = target: T2, CXCR4 D193A (Homo sapiens, UniProt P61073, D193A); test: Competitive binding to CXCR4 mutant D193A (12G5, CHO cells); conditions: TM4, class of reduction vs wild-type CXCR4, 12G5 competition, averages of at least three independent experiments
T2 construct: expressed in transfected cells
Method: as §1, §2, §3

[3] = target: T3, CXCR4 (Homo sapiens, UniProt P61073); test: SDF-1α-induced calcium mobilization assay in SupT1 cells (Fluo-4); assay type: cell-based; parameters: host or cells: SupT1 cells; conditions: 50 nM SDF-1α
Method: (§4) Figure 2 The inhibitory effect of the antagonists on SDF-1α-induced cell chemotaxis and calcium mobilization in SupT1 cells The antagonists and concentrations used were labeled in each lane. (A) The inhibition of cell migration by the noted antagonists. SupT1 cells pre-treated with or without CXCR4 antagonists were seeded in the upper well and cell migrated by 2 nM SDF-1α. Migrated cells without SDF-1α were used as a negative (0%) and migrated cell induced by SDF-1α as a positive control (100%). […] SupT1 cells were treated with or without CXCR4 antagonists and activated by 50 nM SDF-1α. To directly compare the inhibitory effect of the antagonists on calcium mobilization, the vehicle background and baseline were removed using GraphPad and Origin. The data were averages of at least three independent experiments.
SupT1 cells were collected and washed using HHBS buffer (Hanks’ Balanced Salt solution supplemented with 20 mM HEPES) and incubated with 1 mM probenecid (Energy Chemical, China) and 4 μM Fluo-4 (AAT bioquest, U.S.A.) for 37°C for 30 min with vortex every 5 min. After being washed with HHBS, cells were suspended in PBS at 2 × 10^6/ml and seeded 200 μl cells and various concentrations of compounds per well in 96-well plate. Following 50 nM SDF-1α was added to each well, the fluorescence intensity was measured (Ex/Em = 496/516 nm) using EnSpire® multimode plate reader (PerkinElmer, U.S.A.).

[4] = target: T4, CXCR4 W161A (Homo sapiens, UniProt P61073, W161A); test: Competitive binding to CXCR4 mutant W161A (12G5, CHO cells); conditions: TM4, class of reduction vs wild-type CXCR4, 12G5 competition, averages of at least three independent experiments
T4 construct: expressed in transfected cells
Method: as §1, §2, §3

[5] = target: T5, CXCR4 Y45A (Homo sapiens, UniProt P61073, Y45A); test: Competitive binding to CXCR4 mutant Y45A (12G5, CHO cells); conditions: TM1, class of reduction vs wild-type CXCR4, 12G5 competition, averages of at least three independent experiments
T5 construct: expressed in transfected cells
Method: as §1, §2, §3

[6] = target: T6, CXCR4 H281A (Homo sapiens, UniProt P61073, H281A); test: Competitive binding to CXCR4 mutant H281A (12G5, CHO cells); conditions: TM7, class of reduction vs wild-type CXCR4, 12G5 competition, averages of at least three independent experiments
T6 construct: expressed in transfected cells
Method: as §1, §2, §3

[7] = target: T7, CXCR4 V112A (Homo sapiens, UniProt P61073, V112A); test: Competitive binding to CXCR4 mutant V112A (12G5, CHO cells); conditions: TM3, class of reduction vs wild-type CXCR4, 12G5 competition, averages of at least three independent experiments
T7 construct: expressed in transfected cells
Method: as §1, §2, §3

[8] = target: T3, CXCR4; test: SDF-1α-induced cell migration assay in SupT1 cells (transwell); assay type: cell-based; parameters: host or cells: SupT1 cells; conditions: 2 nM SDF-1α, 30 min pre-incubation, 3 h migration
Method: as §4
SupT1 cells (2 × 10^6 cells per well in 75 μl) were collected and washed using assay buffer (RPMI 1640 supplemented with 0.5% BSA) and incubated with various concentrations of tested compounds for 30 min in the upper well of the transwell-96 well plates with 5.0 µm pore polycarbonate membrane insert (Corning, U.S.A.). Then, 200 μl assay buffer containing 2 nM SDF-1α was added to the lower well and cells were allowed to migrate for 3 h. Migrated cells were measured using celltiter-96 reagent.

[9] = target: T8, CXCR4 R30A (Homo sapiens, UniProt P61073, R30A); test: Competitive binding to CXCR4 mutant R30A (12G5, CHO cells); parameters: key to the marks not given beside the values; conditions: TM1, class of reduction vs wild-type CXCR4, 12G5 competition, averages of at least three independent experiments
T8 construct: expressed in transfected cells
Method: as §1, §2, §3

[10] = target: T9, CXCR4 I284A (Homo sapiens, UniProt P61073, I284A); test: Competitive binding to CXCR4 mutant I284A (12G5, CHO cells); conditions: TM7, class of reduction vs wild-type CXCR4, 12G5 competition, averages of at least three independent experiments
T9 construct: expressed in transfected cells
Method: as §1, §2, §3

[11] = target: T10, CXCR4 H113A (Homo sapiens, UniProt P61073, H113A); test: Competitive binding to CXCR4 mutant H113A (12G5, CHO cells); conditions: TM3, class of reduction vs wild-type CXCR4, 12G5 competition, averages of at least three independent experiments
T10 construct: expressed in transfected cells
Method: as §1, §2, §3

[12] = target: T11, CXCR4 T117A (Homo sapiens, UniProt P61073, T117A); test: Competitive binding to CXCR4 mutant T117A (12G5, CHO cells); conditions: TM3, class of reduction vs wild-type CXCR4, 12G5 competition, averages of at least three independent experiments
T11 construct: expressed in transfected cells
Method: as §1, §2, §3

[13] = target: T12, CXCR4 W252A (Homo sapiens, UniProt P61073, W252A); test: Competitive binding to CXCR4 mutant W252A (12G5, CHO cells); conditions: TM6, class of reduction vs wild-type CXCR4, 12G5 competition, averages of at least three independent experiments
T12 construct: expressed in transfected cells
Method: as §1, §2, §3

[14] = target: T13, CXCR4 H203A (Homo sapiens, UniProt P61073, H203A); test: Competitive binding to CXCR4 mutant H203A (12G5, CHO cells); conditions: TM5, class of reduction vs wild-type CXCR4, 12G5 competition, averages of at least three independent experiments
T13 construct: expressed in transfected cells
Method: as §1, §2, §3

T7 sequence (P61073 whole entry V112A): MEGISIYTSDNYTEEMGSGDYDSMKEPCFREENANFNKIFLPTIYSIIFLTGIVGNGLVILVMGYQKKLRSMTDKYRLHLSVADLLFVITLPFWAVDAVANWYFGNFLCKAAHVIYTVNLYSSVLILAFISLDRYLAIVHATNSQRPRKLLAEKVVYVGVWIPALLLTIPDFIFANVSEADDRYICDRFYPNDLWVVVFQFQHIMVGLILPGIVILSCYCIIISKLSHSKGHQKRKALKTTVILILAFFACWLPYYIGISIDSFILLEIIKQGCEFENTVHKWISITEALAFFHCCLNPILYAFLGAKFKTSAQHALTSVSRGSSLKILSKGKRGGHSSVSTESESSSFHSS
T10 sequence (P61073 whole entry H113A): as the sequence (P61073 whole entry V112A) above, with A112V, H113A counted along it
T11 sequence (P61073 whole entry T117A): as the sequence (P61073 whole entry V112A) above, with A112V, T117A counted along it
T4 sequence (P61073 whole entry W161A): as the sequence (P61073 whole entry V112A) above, with A112V, W161A counted along it
T12 sequence (P61073 whole entry W252A): as the sequence (P61073 whole entry V112A) above, with A112V, W252A counted along it
T9 sequence (P61073 whole entry I284A): as the sequence (P61073 whole entry V112A) above, with A112V, I284A counted along it
T1 sequence (P61073 whole entry D262E): as the sequence (P61073 whole entry V112A) above, with A112V, D262E counted along it
T8 sequence (P61073 whole entry R30A): as the sequence (P61073 whole entry V112A) above, with R30A, A112V counted along it
T6 sequence (P61073 whole entry H281A): as the sequence (P61073 whole entry V112A) above, with A112V, H281A counted along it
T2 sequence (P61073 whole entry D193A): as the sequence (P61073 whole entry V112A) above, with A112V, D193A counted along it
T13 sequence (P61073 whole entry H203A): as the sequence (P61073 whole entry V112A) above, with A112V, H203A counted along it
T3 sequence (P61073 whole entry): as the sequence (P61073 whole entry V112A) above, with A112V counted along it
T5 sequence (P61073 whole entry Y45A): as the sequence (P61073 whole entry V112A) above, with Y45A, A112V counted along it

Compound	Competitive receptor binding activity, CXCR4 D262E [1]	Competitive receptor binding activity, CXCR4 D193A [2]	Inhibition of calcium mobilization (in words) ([3]; single concentration (Figure 2B))	Competitive receptor binding activity, CXCR4 W161A [4]	Competitive receptor binding activity, CXCR4 Y45A [5]	Competitive receptor binding activity, CXCR4 H281A [6]	Competitive receptor binding activity, CXCR4 V112A [7]	inhibition at 0.4 µM ([8]; SUP-T1, at 400 nM)	Competitive receptor binding activity, CXCR4 R30A [9]	Competitive receptor binding activity, CXCR4 I284A [10]	Competitive receptor binding activity, CXCR4 H113A [11]	Competitive receptor binding activity, CXCR4 T117A [12]	Competitive receptor binding activity, CXCR4 W252A [13]	Competitive receptor binding activity, CXCR4 H203A [14]	inhibition at 1 µM ([3]; SUP-T1, at 1 μM)	inhibition at 2 µM ([8]; SUP-T1, at 2 μM)	Inhibition of the calcium signal ([3]; at 50 nM)	Inhibition of cell migration ([8]; at 50 nM)
CC(C)NCCCC[C@H](NC(=O)[C@H]1CCC(=O)N[C@@H](Cc2ccccc2)C(=O)N[C@@H](Cc2ccc(O)cc2)C(=O)N[C@@H](CCCCNC(C)C)C(=O)N[C@H](CCCNC(=N)N)C(=O)N[C@@H](Cc2ccc3ccccc3c2)C(=O)NCC(=O)N1)C(N)=O [LY2510924] (FY[Lys(iPr)][dR][2Nal]G[dE][Lys(iPr)]-NH2; lactam N-7 (inferred))	++ (10–29% reduction compared with wild-type CXCR4)	+++	significant inhibition	++ (10–29% reduction compared with wild-type CXCR4)	+ (30–60% reduction compared with wild-type CXCR4)	++ (10–29% reduction compared with wild-type CXCR4)	++ (10–29% reduction compared with wild-type CXCR4)	76%	+++	++ (10–29% reduction compared with wild-type CXCR4)	+ (30–60% reduction compared with wild-type CXCR4)	+ (30–60% reduction compared with wild-type CXCR4)	++ (10–29% reduction compared with wild-type CXCR4)	+ (30–60% reduction compared with wild-type CXCR4)	–	–	–	–
I: [dL]G[dA][dS][dW][dH][dR][dP][dD][dK][dC][dC][dL]G[dY][dQ][dK][dR][dP][dL][dP] / II: [dL]G[dA][dS][dW][dH][dR][dP][dD][dK][dC][dC][dL]G[dY][dQ][dK][dR][dP][dL][dP] (disulfide I:11-II:11, I:12-II:12) [DV1 dimer]	++ (10–29% reduction compared with wild-type CXCR4)	++ (10–29% reduction compared with wild-type CXCR4)	–	+++	++ (10–29% reduction compared with wild-type CXCR4)	++ (10–29% reduction compared with wild-type CXCR4)	+++	–	+++	+++	+ (30–60% reduction compared with wild-type CXCR4)	++ (10–29% reduction compared with wild-type CXCR4)	+++	++ (10–29% reduction compared with wild-type CXCR4)	75%	43%	–	–
LGASWHRPDKCCLGYQKRPLPQVLLSSWYPTSQLCSKPGVIFLTKRGRQVCADKSKDWVKKLMQQLPVTAR [vMIP-II, viral macrophage-inflammatory protein-II, full-length natural chemokine antagonist produced by human herpesvirus-8; recombinant from Peprotech]	++ (10–29% reduction compared with wild-type CXCR4)	++ (10–29% reduction compared with wild-type CXCR4)	–	+++	+++	+++	+++	–	+++	+++	+++	+++	+++	+++	–	–	64%	64%

From article PMC10987480, “Biological and mutational analyses of CXCR4–antagonist interactions and design of new antagonistic analogs” (Bioscience Reports, 2023)
